Series [1] addresses T1, NEK2(h) (Homo sapiens, UniProt P51955).
T1 construct: purchased Eurofins KinaseProfiler (Eurofins Cerep)
Kind of series: Eurofins KinaseProfiler radiometric kinase assay. It is filed as biochemical. The settings on record: read-out: NEK2(h) % Residual activity.

Series [2] deals with GSK3β(h) (Homo sapiens, UniProt P49841). Kind of series: Eurofins KinaseProfiler radiometric kinase assay. The conditions noted are these: read-out: GSK3β(h) % Residual activity.
The target in series [3] is T2, Abl(h) (Homo sapiens, UniProt P00519).
T2 construct: purchased Eurofins KinaseProfiler (Eurofins Cerep)
The series is described as follows: Eurofins KinaseProfiler radiometric kinase assay. It is filed as biochemical. The conditions noted are these: for Abl inhibition: 10 µM; for remaining activity at 10 µM: read-out: Abl(h) % Residual activity.

Series [4] concerns the target T3, MLK1(h) (Homo sapiens, UniProt P80192).
T3 construct: purchased Eurofins KinaseProfiler (Eurofins Cerep)
The series is described as follows: Eurofins KinaseProfiler radiometric kinase assay. Type of series: biochemical. The settings on record: for remaining activity at 10 µM: read-out: MLK1(h) % Residual activity.

Series [5] addresses T4, CDK2/cyclinA(h) (Homo sapiens, UniProt P24941).
T4 construct: purchased Eurofins KinaseProfiler (Eurofins Cerep)
Kind of series: Eurofins KinaseProfiler radiometric kinase assay. It is filed as biochemical. The conditions noted are these: read-out: CDK2/cyclinA(h) % Residual activity.

The target of series [6] is T5, CaMKI(h) (Homo sapiens, UniProt Q14012).
T5 construct: purchased Eurofins KinaseProfiler (Eurofins Cerep)
The series is described as follows: Eurofins KinaseProfiler radiometric kinase assay. It is filed as biochemical. The conditions noted are these: read-out: CaMKI(h) % Residual activity.

In series [7] the target is T6, ALK(h) (Homo sapiens, UniProt Q9UM73).
T6 construct: purchased Eurofins KinaseProfiler (Eurofins Cerep)
Kind of series: Eurofins KinaseProfiler radiometric kinase assay. It is filed as biochemical. The conditions noted are these: read-out: ALK(h) % Residual activity.

In series [8] the target is T7, PAK2(h) (Homo sapiens, UniProt Q13177).
T7 construct: purchased Eurofins KinaseProfiler (Eurofins Cerep)
Kind of series: Eurofins KinaseProfiler radiometric kinase assay. It is filed as biochemical. The conditions noted are these: read-out: PAK2(h) % Residual activity.

For series [9], the target named is T8, CK2α2(h) (Homo sapiens, UniProt P19784).
T8 construct: purchased Eurofins KinaseProfiler (Eurofins Cerep)
The series is described as follows: Eurofins KinaseProfiler radiometric kinase assay. The settings on record: read-out: CK2α2(h) % Residual activity. Type of series: biochemical.

The target of series [10] is T9, PKG1α(h) (Homo sapiens, UniProt Q13976).
T9 construct: purchased Eurofins KinaseProfiler (Eurofins Cerep)
The series is described as follows: Eurofins KinaseProfiler radiometric kinase assay. The settings on record: read-out: PKG1α(h) % Residual activity. It is filed as biochemical.

In series [11] the test system is neurospheres (NPCs from the subventricular zone). Kind of series: Neurosphere growth analysis (NPC proliferation). The conditions noted are these: 0.1, 1, and 5 μM; 7 days. Type of series: cell-based, mice. Here is the method: Based on that, we further investigated the neurogenic and differentiation potential of our kinase inhibitors in cell culture of neurospheres, which are floating pools of NPCs coming from the subventricular zone (SVZ) of six-month-old mice. Particularly, we first analyzed the variation, during 7 days, in number and size of neurosphere population with and without treatment.
To investigate the effect of compounds of interest in neurospheres’ growth rate, single spheres were plated in suspension in 96-well plates (5 × 10^3 cells/well) in the presence of compounds (0.1 μM, 1 μM, and 5 μM) in complete DMEM F-12 culture medium. One image/well was acquired every day by using the Sartorius Incucyte Live-Cell Analysis System and evaluated through the Brightfield Spheroid Analysis Software Module. Only aggregates with areas larger than 400 μm^2 were considered for statistical analysis.

Series [12] addresses FYNα (Homo sapiens, UniProt P06241). The series is described as follows: Fyn kinetics, ATP competition (Lineweaver–Burk). The settings on record: 0.05 and 0.3 μM compound; ATP 1.5 to 24 μM.
Series [13] in a line: BBB permeability in hCMEC/D3 transwell model. The conditions noted are these: human.
Procedure: To this aim, the immortalized human brain endothelial cell line (hCMEC/D3) was used since it mimics the brain endothelium-restricted permeability and expresses most of the transporters and receptors present in vivo, constituting a valuable in vitro model of the human BBB crossing system.
BBB permeability assay was conducted as described in Albertini et al. The brain microvascular endothelial cells (hCMEC/D3) were seeded at the density of 5 × 10^4 cells per cm^2 in the upper compartment of Transwell filters (polyester, pore size 0.4 μm, 12-well tissue culture transwell; Corning), precoated with rat tail collagen type I (0.1 mg/mL; Roche). […] The concentration of compounds was determined using a Ultimate 3000 HPLC system (ThermoFisher) with UV–vis detection at the maximum absorption wavelength of each compound except for inulin as determined by a spectrophotometric method using a Tecan Sunrise absorbance microplate reader. […] The permeability coefficient (Papp) was calculated as follows: Papp = (ΔQ/Δt)/(C [donor] × A), where ΔQ/Δt represents the permeation rate (mol/s), C [donor] is the initial compound concentration in the donor compartment at time 0 (mol/cm^3), and A represents the surface area of the filter (1.12 cm^2).

Molecules are shown by their SMILES.

T3 sequence (P80192 whole entry): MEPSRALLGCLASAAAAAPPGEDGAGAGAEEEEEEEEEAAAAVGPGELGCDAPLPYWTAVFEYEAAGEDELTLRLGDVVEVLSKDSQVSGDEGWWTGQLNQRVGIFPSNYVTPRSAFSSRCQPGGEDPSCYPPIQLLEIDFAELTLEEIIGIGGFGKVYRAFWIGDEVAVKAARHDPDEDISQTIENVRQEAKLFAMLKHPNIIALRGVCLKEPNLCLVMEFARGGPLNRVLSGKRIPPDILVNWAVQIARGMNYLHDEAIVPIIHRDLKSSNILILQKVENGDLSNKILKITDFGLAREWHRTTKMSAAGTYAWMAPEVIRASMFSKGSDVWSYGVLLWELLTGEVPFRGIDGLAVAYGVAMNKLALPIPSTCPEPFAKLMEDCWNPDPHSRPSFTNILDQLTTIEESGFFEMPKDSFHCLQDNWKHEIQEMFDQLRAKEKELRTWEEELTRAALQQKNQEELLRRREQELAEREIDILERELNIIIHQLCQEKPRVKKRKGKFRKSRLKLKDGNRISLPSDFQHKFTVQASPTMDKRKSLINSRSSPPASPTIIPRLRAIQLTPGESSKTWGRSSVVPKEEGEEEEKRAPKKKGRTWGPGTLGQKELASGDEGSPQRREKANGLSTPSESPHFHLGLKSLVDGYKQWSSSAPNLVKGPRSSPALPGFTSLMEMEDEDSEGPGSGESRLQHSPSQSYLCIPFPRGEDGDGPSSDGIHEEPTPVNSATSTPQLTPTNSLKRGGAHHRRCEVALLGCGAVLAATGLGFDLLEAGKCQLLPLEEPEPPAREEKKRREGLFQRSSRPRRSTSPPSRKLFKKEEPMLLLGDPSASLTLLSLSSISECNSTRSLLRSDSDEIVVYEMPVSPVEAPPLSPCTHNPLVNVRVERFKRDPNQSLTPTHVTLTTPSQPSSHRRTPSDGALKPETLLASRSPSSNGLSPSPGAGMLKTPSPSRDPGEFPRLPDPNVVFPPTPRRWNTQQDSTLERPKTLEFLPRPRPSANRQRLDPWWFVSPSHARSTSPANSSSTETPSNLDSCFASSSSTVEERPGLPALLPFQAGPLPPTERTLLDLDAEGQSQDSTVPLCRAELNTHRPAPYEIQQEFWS
T2 sequence (P00519 whole entry): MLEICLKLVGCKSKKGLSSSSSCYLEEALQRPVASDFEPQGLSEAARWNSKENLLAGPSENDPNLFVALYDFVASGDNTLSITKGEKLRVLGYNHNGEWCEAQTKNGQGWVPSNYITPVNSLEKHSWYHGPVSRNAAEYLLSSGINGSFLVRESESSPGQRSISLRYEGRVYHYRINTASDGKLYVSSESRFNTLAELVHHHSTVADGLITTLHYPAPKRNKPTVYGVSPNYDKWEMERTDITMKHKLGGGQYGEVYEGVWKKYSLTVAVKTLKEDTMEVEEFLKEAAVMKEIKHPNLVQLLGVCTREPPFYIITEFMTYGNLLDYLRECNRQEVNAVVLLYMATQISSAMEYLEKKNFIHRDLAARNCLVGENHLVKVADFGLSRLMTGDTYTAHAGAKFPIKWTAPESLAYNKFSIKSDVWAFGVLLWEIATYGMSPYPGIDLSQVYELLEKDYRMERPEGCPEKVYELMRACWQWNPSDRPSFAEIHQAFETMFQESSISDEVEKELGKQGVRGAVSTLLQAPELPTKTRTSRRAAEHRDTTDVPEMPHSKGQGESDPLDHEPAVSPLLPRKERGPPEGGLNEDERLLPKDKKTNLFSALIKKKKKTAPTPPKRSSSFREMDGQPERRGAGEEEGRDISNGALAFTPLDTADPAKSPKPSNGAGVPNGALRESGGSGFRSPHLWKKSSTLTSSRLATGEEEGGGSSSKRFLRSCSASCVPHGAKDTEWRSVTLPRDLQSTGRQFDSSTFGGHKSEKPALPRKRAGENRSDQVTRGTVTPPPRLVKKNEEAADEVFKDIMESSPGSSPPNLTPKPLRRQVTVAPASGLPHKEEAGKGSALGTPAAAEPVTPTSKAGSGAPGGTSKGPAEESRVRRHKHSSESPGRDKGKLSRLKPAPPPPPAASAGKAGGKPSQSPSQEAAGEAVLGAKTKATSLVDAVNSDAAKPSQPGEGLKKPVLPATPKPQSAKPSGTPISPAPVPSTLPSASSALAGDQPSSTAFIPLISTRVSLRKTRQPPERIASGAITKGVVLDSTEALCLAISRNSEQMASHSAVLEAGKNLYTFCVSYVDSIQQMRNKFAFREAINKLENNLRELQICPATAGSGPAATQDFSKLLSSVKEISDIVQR
T5 sequence (Q14012 whole entry): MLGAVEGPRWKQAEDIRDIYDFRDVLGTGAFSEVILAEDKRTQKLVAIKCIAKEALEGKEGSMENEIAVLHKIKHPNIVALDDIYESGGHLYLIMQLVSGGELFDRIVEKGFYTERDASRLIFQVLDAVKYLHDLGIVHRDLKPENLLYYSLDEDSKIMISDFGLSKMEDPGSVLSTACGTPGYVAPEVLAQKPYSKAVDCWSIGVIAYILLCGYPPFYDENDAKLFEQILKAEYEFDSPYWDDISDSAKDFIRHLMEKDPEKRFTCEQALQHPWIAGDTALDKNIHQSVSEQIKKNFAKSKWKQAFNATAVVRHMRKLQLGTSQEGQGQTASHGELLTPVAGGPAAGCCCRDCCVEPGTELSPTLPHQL
T1 sequence (P51955 whole entry): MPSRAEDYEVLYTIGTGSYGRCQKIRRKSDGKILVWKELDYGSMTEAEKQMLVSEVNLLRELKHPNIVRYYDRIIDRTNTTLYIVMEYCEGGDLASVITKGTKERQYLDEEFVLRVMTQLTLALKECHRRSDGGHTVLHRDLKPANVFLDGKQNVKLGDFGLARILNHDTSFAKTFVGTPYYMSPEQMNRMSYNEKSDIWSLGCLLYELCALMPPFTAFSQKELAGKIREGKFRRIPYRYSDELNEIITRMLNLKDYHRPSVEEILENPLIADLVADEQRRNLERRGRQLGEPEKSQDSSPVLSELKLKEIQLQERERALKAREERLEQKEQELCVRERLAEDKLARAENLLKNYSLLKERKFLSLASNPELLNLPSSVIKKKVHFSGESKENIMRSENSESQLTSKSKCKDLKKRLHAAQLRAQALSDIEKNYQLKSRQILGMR
T6 sequence (Q9UM73 19-1620): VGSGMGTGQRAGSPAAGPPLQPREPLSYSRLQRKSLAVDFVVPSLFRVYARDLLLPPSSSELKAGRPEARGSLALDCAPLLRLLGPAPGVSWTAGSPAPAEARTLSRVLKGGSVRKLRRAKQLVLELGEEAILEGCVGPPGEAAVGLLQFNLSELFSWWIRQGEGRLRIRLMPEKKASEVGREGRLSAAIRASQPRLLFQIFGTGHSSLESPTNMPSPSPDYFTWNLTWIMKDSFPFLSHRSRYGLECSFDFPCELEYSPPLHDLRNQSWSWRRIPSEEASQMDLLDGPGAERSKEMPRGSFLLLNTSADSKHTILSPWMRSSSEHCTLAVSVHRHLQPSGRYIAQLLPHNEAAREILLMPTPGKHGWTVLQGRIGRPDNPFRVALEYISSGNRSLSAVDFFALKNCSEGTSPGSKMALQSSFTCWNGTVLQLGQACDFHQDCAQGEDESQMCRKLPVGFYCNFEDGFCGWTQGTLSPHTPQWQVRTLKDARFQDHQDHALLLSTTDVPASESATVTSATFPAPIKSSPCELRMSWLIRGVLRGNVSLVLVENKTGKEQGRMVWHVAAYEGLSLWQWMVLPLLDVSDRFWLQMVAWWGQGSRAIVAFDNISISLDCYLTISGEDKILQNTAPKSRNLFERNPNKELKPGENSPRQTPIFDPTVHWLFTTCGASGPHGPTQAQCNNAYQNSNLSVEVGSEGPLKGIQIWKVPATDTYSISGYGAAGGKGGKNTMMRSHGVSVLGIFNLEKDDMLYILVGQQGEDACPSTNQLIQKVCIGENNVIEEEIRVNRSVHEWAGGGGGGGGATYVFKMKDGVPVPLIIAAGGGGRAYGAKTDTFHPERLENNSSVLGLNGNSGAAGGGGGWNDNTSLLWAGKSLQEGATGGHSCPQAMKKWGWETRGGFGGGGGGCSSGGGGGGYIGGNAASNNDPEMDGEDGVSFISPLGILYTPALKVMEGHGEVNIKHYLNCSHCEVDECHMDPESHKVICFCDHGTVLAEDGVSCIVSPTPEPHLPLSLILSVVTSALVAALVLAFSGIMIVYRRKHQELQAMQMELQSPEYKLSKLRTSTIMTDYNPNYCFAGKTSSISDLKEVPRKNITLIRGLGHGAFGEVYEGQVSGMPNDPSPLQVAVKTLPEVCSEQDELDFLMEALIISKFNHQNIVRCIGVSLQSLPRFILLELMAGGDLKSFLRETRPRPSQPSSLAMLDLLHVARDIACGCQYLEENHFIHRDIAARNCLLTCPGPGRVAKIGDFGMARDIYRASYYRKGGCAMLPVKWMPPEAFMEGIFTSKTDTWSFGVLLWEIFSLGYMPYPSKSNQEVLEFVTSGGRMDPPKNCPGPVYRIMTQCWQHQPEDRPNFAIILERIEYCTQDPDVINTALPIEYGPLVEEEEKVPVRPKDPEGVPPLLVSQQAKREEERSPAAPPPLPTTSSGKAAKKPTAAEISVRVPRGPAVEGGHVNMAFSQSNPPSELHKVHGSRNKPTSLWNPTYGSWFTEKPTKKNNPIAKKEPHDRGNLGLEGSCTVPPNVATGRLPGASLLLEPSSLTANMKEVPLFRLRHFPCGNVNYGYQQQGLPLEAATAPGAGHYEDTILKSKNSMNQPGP
T8 sequence (P19784 whole entry): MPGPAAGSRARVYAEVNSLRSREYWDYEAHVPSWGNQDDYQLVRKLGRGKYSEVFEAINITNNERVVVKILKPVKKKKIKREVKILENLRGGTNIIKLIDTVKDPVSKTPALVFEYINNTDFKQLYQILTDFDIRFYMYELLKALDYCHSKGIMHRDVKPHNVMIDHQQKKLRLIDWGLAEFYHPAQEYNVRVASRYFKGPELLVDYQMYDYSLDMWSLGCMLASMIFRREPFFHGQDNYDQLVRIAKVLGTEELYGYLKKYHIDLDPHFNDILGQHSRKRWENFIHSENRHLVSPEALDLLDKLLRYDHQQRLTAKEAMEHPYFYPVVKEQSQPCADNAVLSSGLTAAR

Broadly, the inhibition is the percentage by which the read-out fell short of the control. Low readings indicate a response near the control, high ones a response far below the control. In the case of `Br.Cc1sc(NCc2ccccc2)nc1-c1c[nH]c2ncc(Br)cc12` [Compound 41, N-Benzyl-4-(5-bromo-1H-pyrrolo[2,3-b]pyridin-3-yl)-5-methylthiazol-2-amine Hydrobromide], the remaining activity at 10 µM in series [1] worked out at 56%; in [2] it was 58%; in series [3] it was 8%; in series [4], 8%; in [5] it was 27%; in [6] it was 89%. The remaining activity at 10 µM worked out at 38% in [7], 75% in series [8], 83% in [9] and 80% in series [10]. In [3], the “Abl inhibition” value is “completely inhibited”. Besides, the inhibition at 10 µM in [4] is above 90%.
In general, Papp A→B refers to how fast a substance crosses the layer from the apical side. For `Br.Cc1sc(NCc2ccnc(Cl)c2)nc1-c1c[nH]c2ncccc12` [Compound 43, N-((2-Chloropyridin-4-yl)methyl)-5-methyl-4-(1H-pyrrolo[2,3-b]pyridin-3-yl)thiazol-2-amine Hydrobromide], the remaining activity at 10 µM came to 84% in series [1]; 6% in [3]; 12% in [4]; 16% in [5]; 80% in series [6]; 61% in series [7]. In addition, the results for the remaining activity at 10 µM in series [8], in series [9] and in series [10] were 72%, 100% and 40%, respectively. Besides, the “Neurosphere number (object count per image), neurogenesis” value in [11] was “not effective”. Moreover, the “Abl inhibition” value in series [3] is on record as “completely inhibited”. In [12], the “Mechanism of Fyn inhibition with respect to ATP” value is recorded as “competitive inhibition with respect to ATP”. In series [13], this compound gave an apical-to-basolateral permeability (Papp A→B) at 90 min, 100 μM of 32 ± 5.38 ×10⁻⁶ cm/s.

Values taken from paper PMC12406253, “Exploration of the Neuromodulatory Properties of Fyn and GSK-3β Kinases Exploiting 7‑Azaindole-Based Inhibitors” (Journal of Medicinal Chemistry, 2025).
